Assay results: PMC11500415, “Chemical inhibition of stomatal differentiation by perturbation of the master-regulatory bHLH heterodimer via an ACT-Like domain” (Nature Communications, 2024)
Several values for one entry are separate records, joined by “and”; a condition that tells them apart may be missing. Equal values may be shown once.

Legend:
SCRM-MUTE [1] = target: T1, SCRM-MUTE (Arabidopsis thaliana, UniProt Q9M8K6); experiment: ITC of SCRM binding to MUTE in presence of compound; design: species or system A. thaliana; conditions: for n of SCRM_MUTE binding: without 0.96; for -T△S of SCRM_MUTE binding: without 25.3 ± 0.5; for △G of SCRM_MUTE binding: without -5.2 ± 0.2; for △H of SCRM_MUTE binding: without -30.5 ± 0.6
T1 construct: MUTE (1-202); GST (N, cleaved yes); made in house; host or cells: E. coli BL21
T1 sequence (Q9M8K6 1-202): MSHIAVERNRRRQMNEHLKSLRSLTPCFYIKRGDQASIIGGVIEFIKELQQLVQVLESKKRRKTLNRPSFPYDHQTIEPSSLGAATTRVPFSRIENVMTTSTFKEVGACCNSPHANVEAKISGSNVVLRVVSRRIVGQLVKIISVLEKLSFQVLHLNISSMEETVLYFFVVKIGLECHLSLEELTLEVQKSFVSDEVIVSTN
Excerpt: (§1) A. thaliana SCRM (1-494), ΔNSPCH (98-364), MUTE (1-202), ΔNFAMA (190-414), MUTEΔC (1-114), MUTER133A_R134A, MUTEE162A_E163A, MUTER133A_R134A_E162A_E163A, SCRM-ACTL (405-494), MUTE-ACTL (114-202), SPCH-ACTL (285-364), FAMA-ACTL (306-414), MUTE_ACTLR133A_R134A, MUTE_ACTLE162A_E163A, MUTE_ACTLR133A_R134A_E162A_E163A were cloned into pGEX-4T-1 vector with an N-terminal GST tag and a thrombin cleavage sequence. For protein expression, the constructs were transformed into E. coli strain BL21. For each transformant, a single colony was selected and incubated in 10 ml LB liquid media. The overnight-incubated E. coli suspensions were transferred to 1 L LB medium and incubated at 37 °C for around 2 h until the OD600 reached 0.4–0.6. The isopropyl β-D-1-thiogalactopyranoside ([…] of final concentration) was added to the cultures and the strains were incubated at 22 °C for a further 18 h. GST-fused proteins were purified using glutathione agarose resin. The soluble portion of the cell lysate was loaded onto a GST-Sepharose column. Nonspecifically bound proteins were removed by washing the column with 20 mM Tris pH 8.0, 200 mM NaCl. The bound GST-fused protein was eluted with 10 mm glutathione and 20 mM Tris pH 8.0, 200 mM NaCl. The GST-fused proteins were exchanged with phosphate-buffered saline buffer, and then the solution was treated with 50 μg of thrombin for 10–12 h at 16 ^οC. The GST portion of the protein was cleaved during thrombin digestion, and then the whole solution was reloaded onto the glutathione S-transferase column to obtain pure protein. The purified proteins were further purified by gel filtration on a Superdex-200 (GE) column using fast protein liquid chromatography and phosphate buffer (pH 7.2) as the eluent. The purity of the protein was checked by SDS-PAGE. For detailed lists of oligo DNA and plasmid information, see Supplementary Tables 5, 6, respectively.
Binding of the small molecule Stomidazolone (3) to SCRM, MUTE, SPCH, FAMA, MUTEΔC, MUTE_ACTL, SCRM_ACTL, SPCH_ACTL and FAMA_ACTL, MUTER133A_R134A, MUTEE162A_E163A, MUTER133A_R134A_E162A_E163A, as well as SCRM binding to MUTE in the presence and absence of Stomidazolone (3) / AYSJ1059 (5) /AYSJ1061 (6) was characterized at 30 °C using a Malvern PEAQ-ITC microcalorimeter. All the protein samples were dialyzed overnight using PBS buffer containing 2% DMSO and 1 mM DTT. Stomidazolone was dissolved in PBS buffer containing 2% DMSO and 1 mM DTT. Titrations were performed by injecting 1 × 0.5-μL and 12 × 3-μL or 1 × 0.75-μL and 18 × 2-μL or 1 × 0.2-μL and 25 × 1.3-μL aliquots of 1 mM Stomidazolone / AYSJ1059 / AYSJ1061 to 5-30 μM of protein in PBS buffer pH 7.4, containing 2% DMSO and 1 mM DTT. All titrations were carried out at least twice. The raw data were corrected using buffer and protein controls and analyzed using the software supplied by the manufacturer. See Supplementary Table 3 for details.

SCRM-MUTE [2] = target: T1, SCRM-MUTE; experiment: BLI of SCRM-MUTE interaction in presence of compound; assay type: binding, A. thaliana; conditions: for Response: BLI, GST-SCRM loaded, in nm (unit assumed); for effect on the SCRM-MUTE heterodimerization (in words): BLI and ITC (Supplementary Fig. 9, Supplementary Tables 2, 3)
Excerpt: as §1
The binding affinities of SCRM to MUTE / MUTER133A_R134A / MUTEE162A_E163A / MUTER133A_R134A_E162A_E163A in presence and absence of Stomidazolone (3) and its analogues (AYSJ1059 (5) and AYSJ1061 (6)), and Stomidazolone / AYSJ1059 / AYSJ1061 interactions with GST-tagged SCRM, MUTE, SPCH, FAMA, MUTE ΔACTL, MUTE_ACTL, SCRM_ACTL, SPCH_ACTL and FAMA_ACTL, MUTER133A_134A, MUTEE162A_E163A, MUTER133A_R134A_E162A_E163A were measured using the Octet Red96 system (ForteBio, Pall Life Sciences) following the manufacturer’s protocols. The optical probes coated with anti-GST were first loaded with 500 nM GST tagged proteins before kinetic binding analyses. The experiment was performed in 96-well plates maintained at 30 °C. Each well was loaded with 200 μL reaction volume for the experiment. The binding buffer used in these experiments contained 1× PBS supplemented with 2% DMSO, 0.02% Tween20. The concentrations of the Stomidazolone as the analyte in the binding buffer were 100, 50, 25, 12.5, 6.25, 3.12, and 1.56 μM. There was no binding of the analytes to the unloaded probes as shown by the control wells. Binding kinetics to all seven concentrations of the analytes were measured simultaneously using default parameters on the instrument. The data were analyzed using the Octet data analysis software. The association and dissociation curves were fit with the 1:1 homogeneous ligand model. The kobs (observed rate constant) values were used to calculate Kd, with steady-state analysis of the direct binding. See Supplementary Table 3 for details.

| Compound | n of SCRM_MUTE binding (SCRM-MUTE [1]) | -T△S of SCRM_MUTE binding (SCRM-MUTE [1]) | △G of SCRM_MUTE binding (SCRM-MUTE [1]) | △H of SCRM_MUTE binding (SCRM-MUTE [1]) | Response (SCRM-MUTE [2]; MUTE+Stomid Conc. 78 nM) | Response (SCRM-MUTE [2]; MUTE+Stomid Conc. 78 nM, listed as Stomid) | Response (SCRM-MUTE [2]; MUTE+Stomid Conc. 156 nM) | Response (SCRM-MUTE [2]; MUTE+Stomid Conc. 312.5 nM) | Response (SCRM-MUTE [2]; MUTE+Stomid Conc. 625 nM) | Response (SCRM-MUTE [2]; MUTE+Stomid Conc. 1250 nM) | Response (SCRM-MUTE [2]; MUTE+Stomid Conc. 2500 nM) | Response (SCRM-MUTE [2]; MUTE+Stomid Conc. 5000 nM) | effect on the SCRM-MUTE heterodimerization (in words) (SCRM-MUTE [2]) |
| --- | --- | --- | --- | --- | --- | --- | --- | --- | --- | --- | --- | --- | --- |
| O=C1C(c2ccccc2)=NC(NS(=O)(=O)c2ccccc2)(c2ccccc2)N1S(=O)(=O)c1ccccc1 (stereo not shown) [Stomidazolone] | 0.91 | 5.2 ± 0.4 | -2.3 ± 0.2 | -7.5 ± 0.3 | 0.031 | 0.0213 | 0.0603 and 0.0323 | 0.0687 and 0.078 | 0.1313 and 0.1154 | 0.2145 and 0.1812 | 0.2742 and 0.2312 | 0.2812 and 0.3134 | – |
| O=C1C(c2ccccc2)=NC(NS(=O)(=O)c2ccccc2)(c2ccc(Br)cc2)N1S(=O)(=O)c1ccccc1 (stereo not shown) [AYSJ1061] | 1.1 | 35.3 ± 0.6 | -10.2 ± 0.2 | -45.5 ± 0.6 | – | – | – | – | – | – | – | – | minimal effects |
| Cc1ccc(C2(NS(=O)(=O)c3ccccc3)N=C(c3ccccc3)C(=O)N2S(=O)(=O)c2ccccc2)cc1 (stereo not shown) [AYSJ1059] | 1.0 | 27.2 ± 0.6 | -6.3 ± 0.2 | -33.5 ± 0.6 | – | – | – | – | – | – | – | – | minimal effects |
